One assay concerns the target T1, FGF2 (Homo sapiens, UniProt P09038).
T1 construct: made in house; host or cells: Escherichia coli BL21 (DE3) Star
As to the kind of experiment: Thermal shift assay (TSA) of FGFR1/FGF2 complex, FGF2 melting peak. The assay is classed as binding. Particulars: for ΔTm at 10 µM: 10 μM compound; for ΔTm at 100 µM: 100 μM compound; for ΔTm at 25 µM: 25 μM compound; for ΔTm at 2 µM: 2 μM compound. The source says: (§1) TSA was utilized to biophysically characterize the recombinant human FGFR1/FGF2 complex in the presence or absence of compounds. The assay functions by protein denaturation over a temperature gradient. During protein unfolding, exposed hydrophobic regions bind a dye and fluoresce due to solvent relaxation effects. Changes in the melting temperature of the protein complex in the presence of each compound were monitored and compounds were screened/ranked using this method.
One Shot BL21 (DE3) Star Escherichia coli competent cells (Thermo Fisher) were transformed with a relevant FGF2 plasmid and inoculated onto Ampicillin Luria Broth/Agar plates. Two hundred milliliter portions of Terrific Broth starter cultures were used to inoculate 9 L cultures with ampicillin at a concentration of 100 μg/mL. Cultures were grown to an O.D.600 near 1.0 at 37° C., and induced with IPTG overnight at 18° C. The cells were harvested at 7000 RPM in rotor 6000 for 5 min at 4° C. and stored at −80° C. Bacterial pellets were resuspended in 25 mM Hepes-NaOH, pH 7.5, 250 mM NaCl, and the cells were lysed in 3 cycles on/off for 3 minutes each at 4° C. via sonication. After centrifugation for 30 minutes at 16,000 RPM at 4° C., the isolated pellets were discarded, and the supernatant was filtered supernatant through a […] PES filter using 100 mL superloop. The lysate was purified over a 5 mL S column by washing the column with Lysis buffer for 5 CV then eluting using gradient from 250 mM to 1 M NaCl over 20 CV. The fractions containing FGF2 were identified via SDS-PAGE gel (Expected Mw: 15.2 KDa). The protein was collected and diluted in 20 mM Tris-HCl pH 8.0, 25 mM MgCl2 buffer in order to reach a NaCl concentration of 150 mM. The purified FGF2 was concentrated and stored at −80° C.
(§2) Thawed aliquots of purified FGF2 (1.0 mg/mL) and FGFR1 (1.6 mg/mL) proteins were mixed in a 1:1 molar ratio (64 μM: 64 μM) on ice for 30 min at 4° C. and plated prior to the thermal shift assay (TSA). Complex formation was verified by loading the complexed material on a size exclusion column (superdex 300GL S200) and observing the monodisperse peak corresponding to the FGF2/FGFR1 complex (˜40 kDa). Compounds of the invention were screened in dose response format (0-100 μM) with the FGF2/FGFR1 complex in triplicates. FGF2/FGFR1/compound complexes were mixed in a 1000:1 ratio with Sypro Orange dye (Sigma-Aldrich). The samples were processed using a Bio-Rad CFX C96 Touch quantitative polymerase chain reaction and run using the FRET assay settings with a heating ramp of 0.3° C./s cycling from 4 to 100° C. Data analysis was performed using the Bio-Rad CFX Manager Software (version 3.1, Bio-Rad) and changes in the melting temperature (Tm) of the complex in the presence of each compound were monitored. The results are shown in Tables 2 and 3 below and also in FIG. 1 (for Compound 2).

A further assay concerns the target FGFR1 (Homo sapiens, UniProt P11362). Put plainly: Thermal shift assay (TSA) of FGFR1/FGF2 complex, FGFR1 melting peak. The assay is classed as binding. The note with it: FGF2/FGFR1 complex; for ΔTm at 10 µM: 10 μM compound; for ΔTm at 100 µM: 100 μM compound; for ΔTm at 25 µM: 25 μM compound; for ΔTm at 2 µM: 2 μM compound. Also noted: made in house; host or cells: Escherichia coli BL21 (DE3) Star.
Source text: as §1
Cell pellets were thawed and resuspend in 100 mL of FGFR1 Lysis Buffer per 9 g of pellet (20 mM Tris-HCl pH 8.0, 500 mM NaCl, 1 mM dithiothreitol) by stirring at 4° C. for 1 hour. Cells were lysed in 3 cycles on/off for 3 minutes each at 4° C. via sonication followed by centrifugation for 30 minutes at 16,000 RPM in rotor F20 at 4° C., after which the supernatant was discarded. This process was then repeated twice. The pellets were resuspended in 150 mL FGFR1 solubilization buffer (8 M urea, 20 mM Tris-HCL pH 8.0, 150 mM NaCl, 1 mM dithiothreitol) by stirring for 1 hour at 4° C., and the solution was subjected to centrifugation for 30 minutes at 16,000 RPM in rotor F20 at 4° C. The pellets were discarded, and the supernatant was filtered through a […] polyethersylfone (PES) filter. After filtration, the supernatant was added dropwise to 1 L FGFR1 refolding buffer (20 mM Tris-HCl pH 8.0, 150 mM NaCl, 0.5 M L-arginine, 25 mM MgCl2) using a glass column. Protein was concentrated by tangential flow from 1 L to 100 mL and dialyzed against 1 L of FGFR1 Dialysis Buffer (20 mM Tris-HCl pH 8.0, 150 mM NaCl, 25 mM MgCl2) for 2 hours at 4° C., and the dialysis step was repeated with fresh buffer for an additional 2 hours at 4° C. The material thus obtained was then centrifuged at 4000 RPM in Eppendorf tabletop centrifuge for 5 minutes and loaded onto 2×5 mL heparin columns. The columns were washed extensively (20 CV) using FGFR1 Heparin Buffer A (20 mM Tris-HCl pH 8.0, 150 mM NaCl, 25 mM MgCl2) and then eluted using FGFR1 Heparin Buffer B (20 mM Tris-HCl pH 8.0, 1.5 M NaCl, 25 mM MgCl2). A large peak was recovered that was >95% pure by SDS-PAGE analysis gel (Expected Mw: 25 KDa). The protein was collected and diluted in 20 mM Tris-HCl pH 8.0, 25 mM MgCl2 buffer in order to reach a NaCl concentration of 150 mM. The FGFR1 thus obtained was concentrated and stored at −80° C.
as §2

FGFR1, sequence (P11362 142-365 limits assumed): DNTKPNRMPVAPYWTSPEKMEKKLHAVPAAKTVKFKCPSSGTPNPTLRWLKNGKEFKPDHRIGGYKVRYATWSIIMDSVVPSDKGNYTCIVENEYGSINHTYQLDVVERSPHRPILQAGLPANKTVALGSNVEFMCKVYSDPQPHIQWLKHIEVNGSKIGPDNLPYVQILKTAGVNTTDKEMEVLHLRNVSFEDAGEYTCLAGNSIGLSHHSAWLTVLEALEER
FGFR1, sequence (P09038 156-288 partner limits assumed): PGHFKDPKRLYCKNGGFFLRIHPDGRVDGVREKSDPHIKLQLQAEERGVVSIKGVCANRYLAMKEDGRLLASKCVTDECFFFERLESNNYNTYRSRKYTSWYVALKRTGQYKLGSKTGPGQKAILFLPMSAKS
T1 sequence (P09038 156-288 limits assumed): as the sequence (P09038 156-288 partner limits assumed) above
T1 sequence (P11362 142-365 partner limits assumed): as the sequence (P11362 142-365 limits assumed) above

For orientation: ΔTm means the change in melting temperature against a reference sample. On to `Brc1ccc2c(c1)CCN(C1CCN(C(c3ccccc3)c3ccccc3)CC1)C2` [Compound 1, 2-(1-benzhydrylpiperidin-4-yl)-6-bromo-1,2,3,4-tetrahydroisoquinoline], for which, at FGF2, the ΔTm at 10 µM was -1.5 °C and the ΔTm at 100 µM is -1.8 °C. On FGFR1, the ΔTm at 10 µM was found to be 2 °C and the ΔTm at 100 µM was determined as 3 °C.
As to `N#Cc1ccc2c(c1)CCN(C1CCN(C(c3ccccc3)c3ccccc3)CC1)C2` [Compound 3, 2-(1-benzhydrylpiperidin-4-yl)-1,2,3,4-tetrahydroisoquinoline-6-carbonitrile], the ΔTm at 25 µM on FGF2 amounted to 3.7 °C; at FGFR1, 0 °C.
Take `c1ccc(C(c2ccccc2)N2CCC(N3CCc4ccncc4C3)CC2)cc1` [Compound 4, 2-(1-benzhydrylpiperidin-4-yl)-1,2,3,4-tetrahydro-2,7-naphthyridine]: the figures for the ΔTm at 2 µM at FGF2 and on FGFR1 were -2.2 °C and 14.5 °C, respectively.
For the compound `Clc1ccc2c(c1)CCN(C1CCN(C(c3ccccc3)c3ccccc3)CC1)C2` [Compound 5, 2-(1-benzhydrylpiperidin-4-yl)-6-chloro-1,2,3,4-tetrahydroisoquinoline], the results for the ΔTm at 25 µM on FGF2 and at FGFR1 were -1.7 °C and 1.2 °C, respectively.
The matching figures for `Fc1ccc2c(c1)CCN(C1CCN(C(c3ccccc3)c3ccccc3)CC1)C2` [Compound 6, 2-(1-benzhydrylpiperidin-4-yl)-6-fluoro-1,2,3,4-tetrahydroisoquinoline]: 0 °C and 1.5 °C.
Take `Fc1cccc2c1CCN(C1CCN(C(c3ccccc3)c3ccccc3)CC1)C2` [Compound 7, 2-(1-benzhydrylpiperidin-4-yl)-5-fluoro-1,2,3,4-tetrahydroisoquinoline]: the ΔTm at 10 µM was -0.2 °C on FGF2 and 10.7 °C on FGFR1.
The matching figures for `Fc1ccc2c(c1)CN(C1CCN(C(c3ccccc3)c3ccccc3)CC1)CC2` [Compound 8, 2-(1-benzhydrylpiperidin-4-yl)-7-fluoro-1,2,3,4-tetrahydroisoquinoline]: -0.5 °C and 3.3 °C.
On to `Fc1cccc2c1CN(C1CCN(C(c3ccccc3)c3ccccc3)CC1)CC2` [Compound 9, 2-(1-benzhydrylpiperidin-4-yl)-8-fluoro-1,2,3,4-tetrahydroisoquinoline], for which the ΔTm at 100 µM at FGF2 and on FGFR1 was 0 °C each time.
In the case of `c1ccc(C(c2ccccc2)N2CCC(N3CCc4cccnc4C3)CC2)cc1` [Compound 14, 7-(1-benzhydrylpiperidin-4-yl)-5,6,7,8-tetrahydro-1,7-naphthyridine], the ΔTm at 25 µM at FGF2 was -3.3 °C; on FGFR1 it was 5.4 °C.
In the case of `c1ccc(C(c2ccccc2)N2CCC(N3CCc4ncccc4C3)CC2)cc1` [Compound 17, 6-(1-benzhydrylpiperidin-4-yl)-5,6,7,8-tetrahydro-1,6-naphthyridine], the ΔTm at 10 µM on FGF2 was -2.7 °C; at FGFR1, 3 °C.
On to `c1ccc(C(c2ccccc2)N2CCC(N3CCc4cnccc4C3)CC2)cc1` [Compound 19, 2-(1-benzhydrylpiperidin-4-yl)-1,2,3,4-tetrahydro-2,6-naphthyridine], for which the ΔTm at 25 µM on FGF2 was -3 °C; at FGFR1 it was 2.8 °C.
Turning to `FC1(F)CN(C2CCN(C(c3ccccc3)c3ccccc3)CC2)Cc2ccccc21` [Compound 21, 2-(1-benzhydrylpiperidin-4-yl)-4,4-difluoro-1,2,3,4-tetrahydroisoquinoline], the ΔTm at 2 µM at FGF2 is -3.6 °C; on FGFR1, 11.6 °C.
The corresponding values for `Fc1cccc2c1CCN(C1CN(C(c3ccccc3)c3ccccc3)C1)C2` [Compound 38, 2-(1-benzhydrylazetidin-3-yl)-5-fluoro-1,2,3,4-tetrahydroisoquinoline] are -2.7 °C and 9.8 °C.
Take `Brc1ccc2c(c1)CCN(C1CN(C(c3ccccc3)c3ccccc3)C1)C2` [Compound 43, 2-(1-benzhydrylazetidin-3-yl)-6-bromo-1,2,3,4-tetrahydroisoquinoline]: the ΔTm at 100 µM at FGF2 is -4.5 °C; on FGFR1, 6.6 °C.
The corresponding values for `CCN(CC)c1ccc2c(c1)CCN(C1CN(C(c3ccccc3)c3ccccc3)C1)C2` [Compound 56, 2-(1-benzhydrylazetidin-3-yl)-N,N-diethyl-1,2,3,4-tetrahydroisoquinolin-6-amine] are 0 °C and -0.5 °C.
On to `Fc1ccc(CN2CCC(N3CCc4cc(Br)ccc4C3)CC2)cc1` [Compound 81, 6-bromo-2-(1-(4-fluorobenzyl)piperidin-4-yl)-1,2,3,4-tetrahydroisoquinoline], for which the ΔTm at 100 µM came to 0 °C on FGF2 and 0.3 °C at FGFR1.
Consider `CCN(CC)c1ccc2c(c1)CCN(C1CCN(Cc3ccc(F)cc3)CC1)C2` [Compound 85, N,N-diethyl-2-(1-(4-fluorobenzyl)piperidin-4-yl)-1,2,3,4-tetrahydroisoquinolin-6-amine], for which the results for the ΔTm at 2 µM on FGF2 and on FGFR1 were 0 °C and 14 °C, respectively.

The record behind these values is patent US20240174631A1, “COMPOUNDS, COMPOSITIONS, AND METHODS FOR MODULATING FGF ACTIVITY” (Recovery Therapeutics, Inc., priority 2021, published 2024).
